In US6455585B1, “Esters derived from substituted phennyl-cyclohexyl compounds” (Vita Invest, S.A., priority 1998, dated 2002):

Legend:
[1] = system: Male Swiss mice; assay: Hot plate method, analgesic activity in mice; assay type: in vivo; conditions: for change in vivo at 15 mg/kg: Mus musculus, ip, 0.5 h, hot plate test, intraperitoneal adm., n = 20, read-out: % response time increase; for % response time increase on hot plate: 20 μmol/kg, oral adm., n = 20-40
Protocol: The pharmacological activity of the products of the present invention was tested in vivo in several experimental models, which are known to evaluate the pain in animals.
The method that was used is described by Eddy N. B. and Leimbach D. (J. Pharm. Exp. Ther. 107: 385-393, 1953). The analgesic effect of the products was evaluated analysing the behaviour of the animals on a hot surface at 55° C.±1° C.
Male Swiss mice weighing 20-25 g were used. The compounds being tested were administered orally or intraperitoneally 1 hour o 30 minutes before starting the test, respectively.
The process consisted of placing the animals on the plate and keeping them in a Plexiglas cylinder 25 cm high and 21 cm […]. The time the animals took to jump off the hot surface was determined. The animals were selected before starting the test so that those that took longer than 10 seconds to jump off were not included in the group that would receive treatment.
30 minutes after administering the product being tested, the test was repeated and the maximum time it took the animals to jump off was again recorded.
The results are expressed as the […] of jump time increase calculated as follows: [formula]
In order to determine the duration of the analgesic effect of the orally administered products, the analgesic activity was evaluated on the hot plate 1, 3, 6, 8, and 24 hours after the administration of the product, as well as the control group which received treatment only with the vehicle. The base responses were evaluated at 30 and 5 minutes prior to administering the products.

[2] = system: Male Swiss mice; assay: Determination of the DL50 (acute single dose oral toxicity); assay type: in vivo; conditions: oral single administration, 14 days observation
Protocol: b) Determination of the DL50 in the Products.
(EUDRA/S/87/011, Single Dose Toxicity, European Directive 75/318/EEC) (ICH S4, Toxicity Studies, single dose and repeated dose, CPMP vol III Feb. 87, Single dose toxicity)
Male Swiss mice of the same batch weighing 20-25 g are used in order to estimate the acute toxicity of the products.
Prior to administering the products, the animals were forced to fast for 12 hours with no intake of food but free access to water. Several subgroups of 10 animals were randomly selected and orally given increasing doses of the products in single administration, after which they remained under observation for a period of 14 days with free access to water and food. Finally, the number of dead animals of each subgroup was quantified and the value of the DL50 was calculated (1-2).

| SMILES | change in vivo at 15 mg/kg [1] [%] | DL50 approx. Oral adm. [2] [mg/kg] | % response time increase on hot plate [1] [%] |
| --- | --- | --- | --- |
| CN(C)CC1CCCCC1(O)c1cccc(OC(=O)c2ccccc2OC(=O)N(C)C)c1 (stereo not drawn) [EXAMPLE 8, 3-(2-Dimethylaminomethyl-1-hydroxy-cyclohexyl)-phenyl (RR-SS)-2-dimethylcarbamoyloxy-benzoate] | 327 ± 65 |  |  |
| CC(C)Cc1ccc(C(C)C(=O)Oc2cccc(C3(O)CCCCC3CN(C)C)c2)cc1 (stereo not drawn) [EXAMPLE 1, 3-(2-Dimethylaminomethyl-1-hydroxycyclohexyl)-phenyl 2-(4-Isobutyl-phenyl)-propionate] | 568 ± 100 | ~900 | 210 ± 88 |
| CN(C)CC1=C(c2cccc(OC(=O)c3ccccc3O)c2)CCCC1 [EXAMPLE 7, 3-(2-Dimethylaminomethyl-cyclohex-1-enyl)-phenyl 2-Hydroxybenzoate] | 634 ± 42 |  |  |
| COc1ccc2cc(C(C)C(=O)Oc3cccc(C4(O)CCCCC4CN(C)C)c3)ccc2c1 (stereo not drawn) [EXAMPLE 2, 3-(2-Dimethylaminomethyl-1-hydroxyyclohexyl)-phenyl 2-(6-Methoxy-naphthalen-2-yl)-propionate] | 539 ± 50 |  |  |
| COc1cccc(C2(O)CCCCC2CN(C)C)c1 (single isomer, unassigned) [Tramadol, (1R, 2R or 1S, 2S)-2-[(dimethylamino)methyl]-1-(3-methoxyphenyl) cyclohexanol, reference compound] | 218 ± 98 | ~350 | 87 ± 23 |
| COc1ccc2cc(C(C)C(=O)Oc3cccc(C4=C(CN(C)C)CCCC4)c3)ccc2c1 (stereo not drawn) [EXAMPLE 5, 3-(2-Dimethylaminomethyl-cyclohex-1-enyl)-phenyl 2-(6-Methoxy-naphthalen-2-yl)-propionate] | 356 ± 151 |  |  |
| CN(C)CC1CCCCC1(O)c1cccc(OC(=O)C2CCn3c(C(=O)c4ccccc4)ccc32)c1 (stereo not drawn) [EXAMPLE 3, 3-(2-Dimethylaminomethyl-1-hydroxycyclohexyl)-phenyl 5-Benzoyl-2,3-dihydro-1H-pyrrolizine-1-carboxylate] | 416 ± 146 |  |  |
| CN(C)CC1CCCCC1(O)c1cccc(OC(=O)c2ccccc2O)c1 (stereo not drawn) [EXAMPLE 6, 3-(2-Dimethylaminomethyl-1-hydroxy-cyclohexyl)-phenyl (RR-SS)-2-hydroxybenzoate] | 546 ± 63 | ~550 | 248 ± 72 |
| CC(C)Cc1ccc(C(C)C(=O)Oc2cccc(C3=C(CN(C)C)CCCC3)c2)cc1 (stereo not drawn) [EXAMPLE 4, 3-(2-Dimethylaminomethyl-cyclohex-1-enyl)-phenyl 2-(4-Isobutyl-phenyl)-propionate] | 333 ± 134 |  |  |
